Measured values reported in patent US20060141024A1, “Synergistic combination kit of alpha,beta-arteether, sulfadoxin and pyrimethamine for treatment of severe/multi-drug resistant cerebral malaria” (COUNCIL OF SIENTIFIC AND INDUSTRIAL RESEARCH, priority 2004, published 2006).
Like-named read-outs stand apart in the source and are kept apart here.

Columns and labels:
[1] = im, swiss mice; cited from earlier work
uncomplicated malaria = conditions: cited from earlier work
cerebral malaria = conditions: comatose cerebral malaria cases; quinine intravenous; cited from earlier work
P. falciparum [2] = conditions: cited from earlier work
P. yoelii nigeriensis = assay: Curative dose against P. yoelii nigeriensis in swiss mice; assay type: in vivo, Plasmodium yoelii nigeriensis; conditions: for three days (x3), intramuscular
Protocol: The curative dose of α,β arteether against P. yoelii nigeriensis in gwiss mice (a murine model equivalent to P. falciparum in human) is 7.5 mg/kg for three days. Sulfadoxin/pyrimethtnine combination is usually given for P. falciparum infection, to adult humans as a single dose of 1500 mg sulfadoxin and 75 mg pyremethamine (usually in 3 tablets of 500 mg sulfadoxin and 25 mg pyremethamine) (practical chemotherapy of malaria, WHO, Geneva 1990). For children if they are below 40 kg, only 2 tablets are recommended. […] Although resistance to Fansidar is documented in expatriates in East Africa (Schapira et al. 1986), the drug is reported to be generally effective in the indigenous population (Spencer et al. 1984) and it is treated as second line of drug and is the only affordable drug for chloroquine resistant cases in developing countries. In combination the proposed doses of α,β arteether plus sulfadoxin and pyrimethamine for humans would be 150 mg×3 (im injections) or 450-750 mg×5 (oral dose) of α,β arteether with three tablets of 500 mg sulfadoxin and 25 mg of pyrimethamine for P. falciparum. The proposed combination therapy will certainly reduce the incidence of recrudescence and new infection in high transmission areas.

P. falciparum [3] = conditions: 211 patients of complicated P. falciparum malaria; cited from earlier work
[4] = tested on: multi drug resistant P. yoelii nigeriensis; assay: Arteether (im, x3) and Fansidar (oral, x1) in combination against multi drug resistant P. yoelii nigeriensis infection in Swiss mice; assay type: in vivo, Plasmodium yoelii nigeriensis
Protocol: Experimental: Swiss mice (20±2 g) were inoculated intra peritoneal with 1×10^6 Plasmodium yoelii nigeriensis (malaria parasite) infected mouse red blood cells. Fansidar was suspended in tween 80 and then in triple distilled water and two different doses, i.e. 1.25-2.5 mg/kg were administered in previously infected Swiss mice. Fansidar was administered by oral route for only 1 day. α/β Arteether was dissolved in neutralized and sterilized ground nut oil and doses i.e. 1.25, 1.78 and 2.5mg/kg were administered by intramuscular route for 3 days. In other groups of infected mice these drugs were given individually for comparison. 2.5, 1.78 and 1.25 mg/kg and α/β arteether were given in combinations with 2.5 and 1.25 mg/kg Fansidar. One group of mice was kept as infected control. After treatment parasitaemia was recorded from tail blood smears of individual mouse. (Table-1)

[5] = tested on: multi drug resistant P. yoelii nigeriensis; assay: Shorter regimen of α/β arteether (im) and Fansidar (oral) against multi drug resistant P. yoelii nigeriensis in Swiss mice; assay type: in vivo, Plasmodium yoelii nigeriensis
Protocol: Experimental: Swiss mice (20±2 g) were inoculated intra peritoneal with 1×10^6 Plasmodium yoelii nigeriensis (malaria parasite) infected mouse red blood cells. Faosidar was suspended in tween 80 and then in triple distilled water and 2.5 mg/kg dose was administered in previously infected Swiss mice. Fansidar was administered by oral route for only 1 day i.e. on day 0 or day 1. α/β Arteether was dissolved in neutralized and sterilized ground nut oil and doses i.e. 7.5 mg/kg×1, ×2, 5 mg/kg×1, ×2 by intramuscular route were given in combination with 2.5 mg/kg ×1 dose of Fansidar. These doses of both the drugs were given individually for comparison. One group of mice was kept as infected control. After treatment parasitaemia was recorded from tail blood smears of individual mouse.

P. falciparum [6] = conditions: arteether 150 mg i.m. daily for three days, uncomplicated P. falciparum malaria, cited from earlier work
[7] = tested on: multi drug resistant P. yoelii nigeriensis; assay: α/β arteether (oral, aqueous) and Fansidar (oral) against multi drug resistant P. yoelii nigeriensis in Swiss mice; assay type: in vivo, Plasmodium yoelii nigeriensis
Protocol: Experimental: Swiss mice (20±2 g) were inoculated intra peritoneal with 1×10^6 Plasmodium yoelii nigeriensis (malaria parasite) infected mouse red blood cells. Fansidar was suspended in tween 80 and then in triple distilled water and different doses i.e. 2.5 and 1.25 mg/kg were administered in previously infected Swiss mice. Fansidar was administered by oral route for only 1 day i.e. on day 0 α/β Arteether was dissolved in tween 80 and triple distilled water and doses i.e. 24 and 12 and 6 mg/kg×4 were given orally in combination with 2.5 and 1.25 mg/kg ×1 dose of Fansidar. These doses of both the drugs were also given individually for comparison. One group of mice was kept as infected control. After treatment parasitaemia was recorded from tail blood smears of individual mouse and their mean parasitaemia was calculated.

[8] = tested on: multi drug resistant P. yoelii nigeriensis; assay: Variable regimen of α/β arteether (oral, in oil) and Fansidar (oral) against multi drug resistant P. yoelii nigeriensis in Swiss mice; assay type: in vivo, Plasmodium yoelii nigeriensis
Protocol: Experimental: Swiss mice (20±2 g) were inoculated intra peritoneal with 1×10^6 Plasmodium yoelii nigeriensis (malaria parasite) infected mouse red blood cells. Fansidar was suspended in tween 80 and then in triple distilled water and different doses i.e., 5, 2.5 and 1.25 mg/kg were admimstered in previously infected Swiss mice. Fansidar was administered by oral route for only 1 day i.e. on day 0. α/β Arteether was dissolved in neutralized and sterilized ground nut oil and doses i.e. 25 mg/kg×1 ×4, 12.5mg/kg×4 were given orally in combination with 5.0, 2.5 and 1.25 mg/kg ×1 dose of Fansidar. These doses of both the drugs were given individually for comparison. One group of mice was kept as infected control. After treatment parasitaemia was recorded from tail blood smears of individual mouse and their mean parasitaemia was calculated.

[9] = arteether 1.25 mg/kg x3 im alone
[10] = arteether 1.78 mg/kg x3 im alone
[11] = arteether 2.5 mg/kg x3 im alone
[12] = arteether 5.0 mg/kg x1 (day 0) im alone
[13] = arteether 5.0 mg/kg x2 (days 0, 1) im alone
[14] = arteether 7.5 mg/kg x1 (day 0) im alone
[15] = arteether 7.5 mg/kg x2 (days 0, 1) im alone
[16] = arteether 6 mg/kg x4 oral (aqueous) alone
[17] = arteether 12 mg/kg x4 oral (aqueous) alone
[18] = arteether 24 mg/kg x4 oral (aqueous) alone
[19] = arteether 12.5 mg/kg x4 oral (in oil) alone
[20] = arteether 25.0 mg/kg x4 oral (in oil) alone

## CO[C@H]1O[C@@H]2O[C@@]3(C)CC[C@H]4[C@H](C)CC[C@@H]([C@H]1C)[C@@]24OO3 [artemether]
[1]
  LD50: 263 mg/kg

## C[C@@H]1CC[C@H]2[C@@H](C)C(=O)O[C@@H]3O[C@@]4(C)CC[C@@H]1[C@]32OO4 [artemisiain, artemisinin]
Uncomplicated malaria; 20 mg/kg x3 days
  recrudescence: 38%
Uncomplicated malaria; 20 mg/kg x5 days
  recrudescence: 15%
Cerebral malaria
  reduction in parasitaemia (time): 16 h

## C[C@H]1[C@H](OC(=O)CCC(=O)O)O[C@@H]2O[C@@]3(C)CC[C@H]4[C@H](C)CC[C@@H]1[C@@]24OO3 [artesunate]
[1]
  LD50: 475 mg/kg

## C=C[C@H]1C[N@@]2CC[C@H]1C[C@H]2[C@H](O)c1ccnc2ccc(OC)cc12 [quinine]
Uncomplicated malaria; 10 mg/kg x7 days
  recrudescence: 16%
Cerebral malaria
  reduction in parasitaemia (time): 34.5 h

## COc1ncnc(NS(=O)(=O)c2ccc(N)cc2)c1OC [sulfadoxin]
P. falciparum [2]
  concentration giving 100% inhibition in vitro: < 5.0 mmol/lit

## CCO[C@H]1O[C@@H]2O[C@@]3(C)CC[C@H]4[C@H](C)CC[C@@H]([C@H]1C)[C@@]24OO3 [α/β arteether, α,β-Arteether]
P. yoelii nigeriensis
  curative dose: 7.5 mg/kg
P. falciparum [3]
  fever clearance time: 24 to 168 h
  overall cure rate: 93%
[4]; [9]
  Cure rate (%): 0.0%
  Day 4 mice negative/total: 3/6
  Day 7 mice negative/total: 0/6
[4]; [10]
  Cure rate (%): 16.6%
  Day 4 mice negative/total: 6/6
  Day 7 mice negative/total: 5/6
  Day 14 mice negative/total: 2/2
  Day 18 mice negative/total: 1/2
  Day 21 mice negative/total: 1/2
  Day 28 mice negative/total: 1/1
[4]; [11]
  Cure rate (%): 66.6%
  Day 4 mice negative/total: 6/6
  Day 7 mice negative/total: 6/6
  Day 14 mice negative/total: 4/4
  Day 18 mice negative/total: 4/4
  Day 21 mice negative/total: 4/4
  Day 28 mice negative/total: 4/4
[5]; [12]
  Cure rate (%): 0.0%
  Day 4 mice negative/total: 6/6
  Day 7 mice negative/total: 2/6
  Day 10 mice negative/total: 0/4
[5]; [13]
  Cure rate (%): 83.3%
  Day 4 mice negative/total: 6/6
  Day 7 mice negative/total: 6/6
  Day 10 mice negative/total: 6/6
  Day 14 mice negative/total: 6/6
  Day 21 mice negative/total: 5/5
  Day 28 mice negative/total: 5/5
[5]; [14]
  Cure rate (%): 83.3%
  Day 4 mice negative/total: 6/6
  Day 7 mice negative/total: 6/6
  Day 10 mice negative/total: 6/6
  Day 14 mice negative/total: 6/6
  Day 21 mice negative/total: 5/5
  Day 28 mice negative/total: 5/5
[5]; [15]
  Cure rate (%): 100%
  Day 4 mice negative/total: 6/6
  Day 7 mice negative/total: 6/6
  Day 10 mice negative/total: 6/6
  Day 14 mice negative/total: 6/6
  Day 21 mice negative/total: 6/6
  Day 28 mice negative/total: 6/6
P. falciparum [6]; 267 patients
  cure rate: 97%
P. falciparum [6]
  fever clearance time: 1 to 7 days
  parasite clearance time: 1 to 3 days
[1]
  LD50: 1250 mg/kg
[7]; [16]
  % Cure rate: 0.0%
  Mice remained negative on day 4: 5/7
  Mice remained negative on day 7: 0/3
[7]; [17]
  % Cure rate: 0.0%
  Mice remained negative on day 4: 3/7
  Mice remained negative on day 7: 0/5
[7]; [18]
  % Cure rate: 14.28%
  Mice remained negative on day 4: 7/7
  Mice remained negative on day 7: 3/6
  Mice remained negative on day 14: 1/3
  Mice remained negative on day 21: 1/2
  Mice remained negative on day 28: 1/1
[7]; x4, oral, aqueous (tween 80/water)
  curative dose with oral formulation (calculated): 72 mg/kg
[8]; [19]
  % Cure rate: 28.5%
  Mice remained negative on day 4: 5/7
  Mice remained negative on day 7: 3/7
  Mice remained negative on day 14: 2/2
  Mice remained negative on day 21: 2/2
  Mice remained negative on day 28: 2/2
[8]; [20]
  % Cure rate: 57.1%
  Mice remained negative on day 4: 7/7
  Mice remained negative on day 7: 7/7
  Mice remained negative on day 14: 4/4
  Mice remained negative on day 21: 4/4
  Mice remained negative on day 28: 4/4
